Data taken from patent US6465614B1, “High-affinity response-selective C-terminal analogs of C5a anaphylatoxin” (priority 1994, dated 2002).
Read-outs that look alike come from different tables or passages of the source. Square brackets hold non-standard residues; d marks the D form. Ends that are not written are not given here. Peptide text beside a SMILES is read from it.

T1: human neutrophils (PMN) (Homo sapiens, UniProt P21730)
T1 sequence (P21730 1-350): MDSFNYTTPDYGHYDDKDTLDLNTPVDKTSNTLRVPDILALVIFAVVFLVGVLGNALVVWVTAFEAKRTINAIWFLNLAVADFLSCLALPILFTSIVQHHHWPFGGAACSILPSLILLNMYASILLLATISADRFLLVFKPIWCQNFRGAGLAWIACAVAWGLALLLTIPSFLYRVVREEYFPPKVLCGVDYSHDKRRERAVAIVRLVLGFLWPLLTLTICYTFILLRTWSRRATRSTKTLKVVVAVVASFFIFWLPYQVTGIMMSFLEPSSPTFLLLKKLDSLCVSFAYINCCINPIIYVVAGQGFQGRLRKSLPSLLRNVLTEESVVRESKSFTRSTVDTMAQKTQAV

T2: human fetal artery (Homo sapiens, UniProt P21730)
T2 sequence (P21730 1-350): T1 sequence (P21730 1-350)

B1: C5a: C5a anaphylatoxin, 74-residue human glycoprotein; human recombinant C5a (Sigma) or natural C5a used as standard (protein, UniProt P01031 678-751, looked up)
C5a anaphylatoxin: TLQKKIEEIAAKYKHSVVKKCCYDGACVNNDETCEQRAARISLGPRCIKAFTECCVVASQLRANISHKDMQLGR
modifications: C5a anaphylatoxin
notes: C5a anaphylatoxin, 74-residue human glycoprotein; human recombinant C5a (Sigma) or natural C5a used as standard

What was measured:
guinea-pig platelets = assay: Guinea-pig platelet aggregation assay; assay type: cell-based; conditions: for Platelet Aggreg (threshold concentration producing visible platelet aggregation): guinea-pig platelets, threshold response
Protocol: This assay was performed on platelets obtained from the arterial blood of anesthetized male Hartley guinea pigs according to previously published methods (Ember et al., 1992, supra). Briefly, platelet-rich plasma was prepared and diluted to 3×10^8 platelets/ml in 0.39% sodium citrate solution. Peptide samples were diluted in a stepwise fashion in 1.5-fold dilutions and placed in 96-well microplates. A […] peptide sample, […] of platelet-rich plasma, and one 3 mm glass bead were placed in each well. The plates were shaken horizontally at 100 rpm for 5 min at 37° C. Platelet aggregation was evaluated visually in an inverted microscope at 40× magnification. The greatest dilution of peptide producing visible aggregation was scored as the threshold concentration for activity. Natural C5a and C3a were included as internal standards. At least three independent duplicate determinations were conducted for every peptide.

human neutrophils (PMN) [1] = molecular target: T1, human neutrophils (PMN); assay type: cell-based
Protocol: Neutrophil polarization assays were conducted as described by Ember et al., 1992, supra. Human neutrophils (PMN) were prepared according to the procedure described by Dahinden et al. (1979), J. Immunol., 130: 857-862. The assay for measuring the effect of C5a analogs on PMN polarization was described by Haston & Shields (1985), J. Immunol. Methods, 81: 229-237. Briefly, PMN (1×10^6 cells/ml) were suspended in 10 mM 3- (N-morpholino) propane sulfonic acid (Sigma Chemical Co.) containing EBSS. […] After 10 minutes of incubation at room temperature, the cells were washed twice and stored until microscopic examination. Cells deviating from the typical spherical shape were visually scored as polarized. Results are expressed as percent of polarized cells per total cells counted (300 cells counted/sample).

human neutrophils (PMN) [2] = molecular target: T1, human neutrophils (PMN); assay type: cell-based; remark: listed apart in the source
Protocol: The release of glucuronidase from human neutrophils was determined as described by Schroder et al. (1987), J. Immunol., 139: 3474-3483. Briefly, human neutrophils were pretreated with cytochalasin B (5 μg/ml, 10 min, 37° C.). The cells (10^6) were incubated in the presence of stimulants for 60 minutes at 37° C. in a final volume of 200 μl and then centrifuged. The supernatant was collected and 50 μl were incubated with 50 μl of 0.01 M P-nitrophenyl-β-D-glucuronide (in 0.1 M sodium acetate at pH 4 for 18 h) as triplicate determinations in 96-well microtiter plates (Corning). The reaction was stopped by addition of 100 μl of 0.4 M gly buffer at pH 10. The reaction developed color that was read at 405 nm in a Titertec Multiscan (MCC/340) ELISA reader. The β-glucuronidase released was expressed as the percentage of total enzyme in the cell that could be released by addition of 0.2% Triton X-100 (Pierce).

human fetal artery = molecular target: T2, human fetal artery; assay: Smooth muscle contraction of human fetal artery (spasmogenic assay); assay type: cell-based
Protocol: Tissue strips were suspended in 2 ml organ baths, containing physiological salt solution (Krebs-Ringers solution: 118 mM NaCl, 4.7 mM KCl, 2.5 mM CaCl2, 25 mM NaHCO3, 1.2 mM KH2PO4, 1.2 mM MgSO4, 10 mM Glucose) maintained at 37° C., pH 7.4 and continuously aerated with a […] mixture. Each tissue preparation was equilibrated for 1 hr prior to testing with peptides. All drugs were kept on ice during the procedure and isometric tensions were measured using strain-gauge transducers (Grass FT-03) with a computerized chart recording system (MacLab/8). After the contraction to each peptide reached a plateau, histamine (10 μM) was added to obtain the maximum tissue response. Because tachyphylaxis occurs rapidly to single doses of C5a or peptides, cumulative dose-response curves could not be obtained. Instead, the dose-response profile was compiled from multiple strips from each tissue. After exposing each strip to a single concentration of the peptide followed by supramaximal histamine, the response was expressed as a percentage of the maximal contraction to histamine. Full dose-response curves for C5a (human recombinant C5a; Sigma) or individual peptides were performed in each experiment for each tissue and the EC50 values (i.e., concentration of peptide producing 50t of the maximal response to each peptide) obtained by probit analysis. pD2 transforms [−log EC50 (M)] were calculated for each dose-response curve, and means ±SE obtained for each peptide.
Human umbilical cords were obtained from the Mater Misericordiae Hospital, South Brisbane, Queensland within minutes of delivery. The mid-section of the umbilical cord was cut from the placenta, placed in physiological salt solution and stored at 5° C. for up to 24 hrs. […] The fetal arteries were dissected out and cut into longitudinal strips. The intimal surface of the arteries was rubbed with a cotton bud to remove the endothelium. Strips approximately 2 cm×3 mm were suspended in organ baths under 20 mN of resting tension. Arterial strips were tested repeatedly with peptides following a 60 min drug-free period of rest between assays (Taylor et al. (1994), Inflammation, in press).

serum carboxypeptidases = assay: Stability toward serum carboxypeptidases (incubation in normal human serum, HPLC); assay type: in vitro ADME; conditions: 37° C., 1 h
Protocol: FIG. 10. HPLC profiles of decapeptide analogs. FIG. 10A: HPLC of […] (peptide/Sequence I.D. No. 2); a=purified peptide; b=des-Arg peptide ([…]; Sequence I.D. No. 24); c=des-Arg peptide in saline, no incubation; d=des-Arg peptide in saline with incubation for 1 h at 37° C.; e=des-Arg peptide in normal human serum with incubation for 1 h at 37° C. FIG. 10B: HPLC of […]aR (Sequence I.D. No. 10); a=purified peptide; b=peptide in saline, no incubation; c=peptide in saline with incubation for 1 h at 37° C.; d=peptide in normal human serum with incubation for 1 h at 37° C. Solvent system 1: 70 mM triethylamine/phosphoric acid buffer, pH-2.3. Solvent system 2: 60% acetonitrile in the Solvent 1 buffer. Linear gradient of 30-50% solvent 2 at.1%/min, slope=1 ml/min, absorbance monitored at 214 nm.
Both peptides were incubated in normal human serum at 37° C. for 1 h and thereafter reanalyzed on HPLC.

Molecule | Platelet Aggreg (threshold concentration producing visible platelet aggregation) (guinea-pig platelets) [µM] | EC50 (human neutrophils (PMN) [1]) [µM] | further results
CSCC[C@H](NC(=O)[C@H](CC(=O)O)NC(=O)[C@H](CCCCN)NC(=O)[C@H](Cc1ccccc1)NC(=O)[C@H](CO)NC(=O)[C@@H](N)Cc1ccc(O)cc1)C(=O)N[C@@H](CCC(N)=O)C(=O)N[C@@H](CC(C)C)C(=O)N[C@@H](C)C(=O)N[C@@H](CCCNC(=N)N)C(=O)O [peptide 7] | 34 | 48 | EC50 (human neutrophils (PMN) [2]): 1000 µM
CSCC[C@H](NC(=O)[C@H](CC(=O)O)NC(=O)[C@H](CCCCN)NC(=O)[C@H](Cc1ccccc1)NC(=O)[C@H](CO)NC(=O)[C@@H](N)Cc1ccc(O)cc1)C(=O)N[C@@H](CCC(N)=O)C(=O)N[C@@H](CC(C)C)C(=O)N[C@H](C)C(=O)N[C@@H](CCCNC(=N)N)C(=O)O [peptide 8] | 20 | 1.2 | EC50 (human neutrophils (PMN) [2]): 32 µM
CC(C)C[C@H](NC(=O)[C@@H]1CCCN1C(=O)[C@H](CS)NC(=O)[C@H](CC(=O)O)NC(=O)[C@H](CCCCN)NC(=O)[C@H](Cc1ccccc1)NC(=O)[C@H](CO)NC(=O)[C@@H](N)Cc1ccc(O)cc1)C(=O)N[C@@H](CS)C(=O)N[C@@H](CCCNC(=N)N)C(=O)O [peptide 17] (H-YSFKDCPLCR-OH; N-terminus assumed) | 4.1 | 224 | –
CC(C)C[C@@H]1NC(=O)[C@@H]2CCCN2C(=O)[C@@H](NC(=O)[C@H](CC(=O)O)NC(=O)[C@H](CCCCN)NC(=O)[C@H](Cc2ccccc2)NC(=O)[C@H](CO)NC(=O)[C@@H](N)Cc2ccc(O)cc2)CSSC[C@@H](C(=O)N[C@@H](CCCNC(=N)N)C(=O)O)NC1=O [peptide 18] (HELM PEPTIDE1{Y.S.F.K.D.C.P.L.C.R}$PEPTIDE1,PEPTIDE1,6:R3-9:R3$$$V2.0) | >410 | – | –
CSCC[C@H](NC(=O)CNC(=O)[C@H](CCCCN)NC(=O)[C@H](Cc1ccccc1)NC(=O)[C@H](CO)NC(=O)[C@@H](N)Cc1ccc(O)cc1)C(=O)N[C@@H](CC(C)C)C(=O)N[C@@H](CC(C)C)C(=O)NCC(=O)N[C@H](CCCNC(=N)N)C(=O)O [peptide 22] (HELM PEPTIDE1{Y.S.F.K.G.M.L.L.G.[dR]}$$$$V2.0; N-terminus and C-terminus assumed) | – | – | agonist character compared to natural C5a in spasmogenic assays (human fetal artery; in words): full agonist of diminished potency; antagonist activity against C5a (human fetal artery; tested at concentrations below those causing contraction or aggregation): devoid of any antagonistic activity
ISFKDMQLGR-OH [peptide 1] | 86.3 | – | –
YSFKDAPLGR-OH [peptide 15] | 7.4 | – | –
YSFKDCPLGR-OH [peptide 16] | 2.3 | 19.5 | –
YSFKDMPAGR-OH [peptide 11] | 101 | 215 | –
YSFKDMPLGR-OH [peptide 5] | 6.3 | – | increase in potency in spasmogenic and aggregatory activities relative to peptide 2 (human fetal artery; across spasmogenic and platelet aggregation assays (Tables 2 and 3)): 4- to 10 fold; log potency ratio at the EC50 level compared to C5a (human fetal artery; fetal artery): 2.01±0.12; % of C5a potency (human fetal artery; fetal artery, from log potency ratio at EC50 level): 1%
YSFKDMPPGR-OH [peptide 6] | 80 | 50 | EC50 (human neutrophils (PMN) [2]): 700 µM
YSFKDMQIGR [peptide 9] | 150 | – | –
YSFKDMQLGR [peptide 2] | – | – | cleavage of the C-terminal Arg (serum carboxypeptidases): significant cleavage
YSFKDMQLPR-OH [peptide 3] | 225 | 500 | –
YSFKDMQPGR-OH [peptide 4] | 500 | – | –
YSFKGLLLGR-OH [peptide 21] | 21 | – | –
YSFKGMLLGR-OH [peptide 20] | 10.5 | – | potency compared with peptide 2 in human fetal artery (human fetal artery; in words): about two times more potent; potency compared with peptide 2 in guinea-pig platelet assay (guinea-pig platelets; in words): about two times more potent
YSFKGMPLGR-OH [peptide 23] | 6.3 | 2 | EC50 (human neutrophils (PMN) [2]): 49.6 µM
YSFKPMQLaR (YSFKPMQL[dA]R) [peptide 24] | – | – | potency relative to natural C5a for elicitation of a spasmogenic response (Class 1) (human fetal artery; smooth muscle contraction assay, percent of natural/full C5a potency): 20-30%
B1 | 0.023 | – | EC50 (human fetal artery; human fetal artery contraction, mean EC50 from individual experiments): 0.018 µM; EC50 (human neutrophils (PMN) [1]; human neutrophils, read-out: PMN Polarization EC50): 0.0013 µM; EC50 (human neutrophils (PMN) [2]; human neutrophils, β-glucuronidase release, read-out: PMN Enzyme Release EC50): 0.0123 µM
